Test results taken from PubChem BioAssay (NCI).
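Following 48 hours of exposure in 96-well plates, responses at five concentrations were used to interpolate endpoints linearly. TGI denotes the concentration required for complete inhibition of growth.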

How the values were obtained:
Experiment in all cases: inhibition of tumour cell growth, NCI panel, 48 h
[1] = test system: HT29 colon
[2] = test system: MOLT-4 leukemia
[3] = test system: SK-OV-3 ovarian
[4] = test system: UACC-62 melanoma
[5] = test system: BT-549 breast
[6] = test system: HOP-92 NSCLC
[7] = test system: A549 NSCLC
[8] = test system: SF-295 CNS
[9] = test system: HCT-15 colon
[10] = test system: COLO 205 colon
[11] = test system: A498 renal
[12] = test system: OVCAR-8 ovarian
[13] = test system: HOP-62 NSCLC
[14] = test system: SK-MEL-2 melanoma
[15] = test system: T-47D breast
[16] = test system: RXF 393 renal
[17] = test system: OVCAR-4 ovarian
[18] = test system: TK-10 renal
[19] = test system: SN12C renal
[20] = test system: MDA-MB-231 breast
[21] = test system: ACHN renal
[22] = test system: EKVX NSCLC
[23] = test system: HCC-2998 colon
[24] = test system: HCT-116 colon
[25] = test system: CCRF-CEM leukemia
[26] = test system: SNB-19 CNS
[27] = test system: UO-31 renal
[28] = test system: MCF7 breast
[29] = test system: PC-3 prostate
[30] = test system: MALME-3M melanoma
[31] = test system: SK-MEL-28 melanoma
[32] = test system: UACC-257 melanoma
[33] = test system: CAKI-1 renal
[34] = test system: SW-620 colon
[35] = test system: OVCAR-5 ovarian
[36] = test system: LOX IMVI melanoma
[37] = test system: SF-268 CNS
[38] = test system: NCI-H522 lung
[39] = test system: U251 CNS
[40] = test system: HL-60(TB) leukemia
[41] = test system: SNB-75 CNS
[42] = test system: KM12 colon
[43] = test system: MDA-MB-435
[44] = test system: M14 melanoma
[45] = test system: SF-539 CNS
[46] = test system: NCI-H23 lung
[47] = test system: 786-0 renal
[48] = test system: DU-145 prostate
[49] = test system: HS 578T breast
[50] = test system: MDA-N
[51] = test system: NCI-H460 lung
[52] = test system: IGROV1 ovarian
[53] = test system: NCI-H226 lung
[54] = test system: SK-MEL-5 melanoma
[55] = test system: K-562 leukemia
[56] = test system: OVCAR-3 ovarian
[57] = test system: NCI/ADR-RES ovarian
[58] = test system: RPMI-8226 leukemia
[59] = test system: SR leukemia

`CC1=C(C)C(=O)C(C2=C(C3=CC(=O)C(C)=C(C)C3=O)C(=O)C(C)=C(C)C2=O)=CC1=O` was tested, and the TGI [1] was 9.02 µM, the TGI [2] was > 100 µM and the TGI [3] was 32.6 µM. For the same compound, the TGI [4] was 25.9 µM, the TGI [5] was 21.6 µM and the TGI [6] was > 51.2 µM. For the same compound, the TGI [7] was > 84.4 µM, the TGI [8] was 33.8 µM and the TGI [9] was > 61.8 µM. For the same compound, the TGI [10] was 8.07 µM, the TGI [11] was 21.5 µM and the TGI [12] was > 47.1 µM. For the same compound, the TGI [13] was 36.5 µM, the TGI [14] was 31 µM and the TGI [15] was 7.32 µM. The TGI [16] was 5.16 µM, the TGI [17] was 4.57 µM and the TGI [18] was 27 µM. The TGI [19] was 47.9 µM, the TGI [20] was 5.29 µM and the TGI [21] was 18.3 µM. For the same compound, the TGI [22] was > 70 µM, the TGI [23] was 28.6 µM and the TGI [24] was > 100 µM. The TGI [25] was > 100 µM, the TGI [26] was > 100 µM and the TGI [27] was 34.1 µM. For the same compound, the TGI [28] was > 21.1 µM, the TGI [29] was 16 µM and the TGI [30] was 11.4 µM. It also gave a TGI [31] of 14 µM, a TGI [32] of 28.4 µM and a TGI [33] of 8.87 µM. For the same compound, the TGI [34] was 13 µM, the TGI [35] was > 34.6 µM and the TGI [36] was > 21.3 µM. For the same compound, the TGI [37] was 34.5 µM, the TGI [38] was 5.21 µM and the TGI [39] was > 38.2 µM. For the same compound, the TGI [40] was > 100 µM, the TGI [41] was 33.3 µM and the TGI [42] was 30.4 µM. The TGI [43] was 14.2 µM, the TGI [44] was > 40.7 µM and the TGI [45] was 4.99 µM. The TGI [46] was 43.1 µM, the TGI [47] was > 49.4 µM and the TGI [48] was 30 µM. The TGI [49] was > 79.7 µM, the TGI [50] was > 20.2 µM and the TGI [51] was 29.6 µM. It also gave a TGI [52] of 31.2 µM, a TGI [53] of 31.8 µM and a TGI [54] of 5.85 µM.

For `CC1(C)COC(c2ccccc2-c2ccccc2)=N1`, the TGI [1] was > 100 µM, the TGI [2] was > 100 µM and the TGI [3] was > 100 µM. For the same compound, the TGI [4] was > 100 µM, the TGI [5] was > 100 µM and the TGI [6] was > 100 µM. For the same compound, the TGI [7] was > 100 µM, the TGI [8] was > 100 µM and the TGI [9] was > 100 µM. The TGI [10] was > 100 µM, the TGI [11] was > 100 µM and the TGI [12] was > 100 µM. For the same compound, the TGI [13] was > 100 µM, the TGI [14] was > 100 µM and the TGI [15] was > 100 µM. For the same compound, the TGI [16] was > 100 µM, the TGI [17] was > 100 µM and the TGI [19] was > 100 µM. For the same compound, the TGI [20] was > 100 µM, the TGI [21] was > 100 µM and the TGI [22] was > 100 µM. For the same compound, the TGI [23] was > 100 µM, the TGI [24] was > 100 µM and the TGI [25] was > 100 µM. For the same compound, the TGI [55] was > 100 µM, the TGI [26] was > 100 µM and the TGI [27] was > 100 µM. For the same compound, the TGI [56] was > 100 µM, the TGI [28] was > 100 µM and the TGI [29] was > 100 µM. The TGI [30] was > 100 µM, the TGI [31] was > 100 µM and the TGI [32] was > 100 µM. For the same compound, the TGI [33] was > 100 µM, the TGI [34] was > 100 µM and the TGI [35] was > 100 µM. For the same compound, the TGI [37] was > 100 µM, the TGI [57] was > 100 µM and the TGI [38] was > 100 µM. The TGI [39] was > 100 µM, the TGI [58] was > 100 µM and the TGI [40] was > 100 µM. The TGI [42] was > 100 µM, the TGI [43] was > 100 µM and the TGI [44] was > 100 µM. For the same compound, the TGI [45] was > 100 µM, the TGI [59] was > 100 µM and the TGI [46] was > 100 µM. The TGI [47] was > 100 µM, the TGI [48] was > 100 µM and the TGI [50] was > 100 µM. For the same compound, the TGI [51] was > 100 µM, the TGI [52] was > 100 µM and the TGI [53] was > 100 µM.
